Experimental data taken from PubChem BioAssay (NCI).
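Following 48 hours of exposure in 96-well plates, responses at five concentrations were used to interpolate endpoints linearly. At the GI50, growth is halved. TGI denotes the concentration required for complete inhibition of growth.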

What was measured:
Assay in all cases: NCI-60 cell line screen, 48 h
[1] = test system: HL-60(TB) leukemia
[2] = test system: KM12 colon
[3] = test system: M14 melanoma
[4] = test system: UO-31 renal
[5] = test system: NCI/ADR-RES ovarian
[6] = test system: 786-0 renal
[7] = test system: NCI-H23 lung
[8] = test system: IGROV1 ovarian
[9] = test system: COLO 205 colon
[10] = test system: SNB-75 CNS
[11] = test system: OVCAR-4 ovarian
[12] = test system: HS 578T breast
[13] = test system: A498 renal
[14] = test system: TK-10 renal
[15] = test system: MDA-MB-231 breast
[16] = test system: RXF 393 renal
[17] = test system: UACC-62 melanoma
[18] = test system: LOX IMVI melanoma
[19] = test system: HT29 colon
[20] = test system: NCI-H226 lung
[21] = test system: A549 NSCLC
[22] = test system: ACHN renal
[23] = test system: MDA-MB-435
[24] = test system: OVCAR-3 ovarian
[25] = test system: T-47D breast
[26] = test system: SF-539 CNS
[27] = test system: OVCAR-8 ovarian
[28] = test system: SN12C renal
[29] = test system: SK-MEL-5 melanoma
[30] = test system: SF-295 CNS
[31] = test system: SW-620 colon
[32] = test system: HOP-62 NSCLC
[33] = test system: MALME-3M melanoma
[34] = test system: K-562 leukemia
[35] = test system: NCI-H522 lung
[36] = test system: SK-OV-3 ovarian
[37] = test system: SK-MEL-28 melanoma
[38] = test system: MCF7 breast
[39] = test system: HCT-15 colon
[40] = test system: RPMI-8226 leukemia
[41] = test system: HCC-2998 colon
[42] = test system: SR leukemia
[43] = test system: U251 CNS
[44] = test system: MOLT-4 leukemia
[45] = test system: UACC-257 melanoma
[46] = test system: OVCAR-5 ovarian
[47] = test system: SK-MEL-2 melanoma
[48] = test system: CCRF-CEM leukemia
[49] = test system: DU-145 prostate
[50] = test system: HCT-116 colon
[51] = test system: SNB-19 CNS
[52] = test system: PC-3 prostate
[53] = test system: BT-549 breast
[54] = test system: NCI-H460 lung
[55] = test system: CAKI-1 renal
[56] = test system: EKVX NSCLC
[57] = test system: SF-268 CNS

## CC[C@]12C=CCN3CC[C@@]4(c5ccc(OC)cc5N(C)[C@H]4[C@@](O)(C(=O)OC)[C@@H]1OC(=O)CCCN1CCN(CCCC(=O)O[C@@H]4[C@]5(CC)C=CCN6CC[C@@]7(c8ccc(OC)cc8N(C)[C@H]7[C@@]4(O)C(=O)OC)[C@@H]65)CC1)[C@@H]32
[1]
  GI50: 0.464 µM
  TGI: 1.85 µM
[2]
  GI50: 0.985 µM
  TGI: 2.31 µM
[3]
  GI50: 1.87 µM
  TGI: 3.61 µM
[4]
  GI50: 1.1 µM
  TGI: 2.33 µM
[5]
  GI50: 1.45 µM
  TGI: 3.17 µM
[6]
  GI50: 1.44 µM
  TGI: 2.91 µM
[7]
  GI50: 1.59 µM
  TGI: 3.13 µM
[8]
  GI50: 0.635 µM
  TGI: 1.99 µM
[9]
  GI50: 1.67 µM
  TGI: 3.25 µM
[10]
  GI50: 0.564 µM
  TGI: 1.95 µM
[11]
  GI50: 1.11 µM
  TGI: 2.44 µM
[12]
  GI50: 1.39 µM
  TGI: 3.38 µM
[13]
  GI50: 1.6 µM
  TGI: 3.49 µM
[14]
  GI50: 1.3 µM
  TGI: 2.78 µM
[15]
  GI50: 0.665 µM
  TGI: 2.02 µM
[16]
  GI50: 0.484 µM
  TGI: 1.72 µM
[17]
  GI50: 1.68 µM
  TGI: 3.13 µM
[18]
  GI50: 0.399 µM
  TGI: 1.5 µM
[19]
  GI50: 0.324 µM
  TGI: 1.2 µM
[20]
  GI50: 1.73 µM
  TGI: 3.47 µM
[21]
  GI50: 1.31 µM
  TGI: 2.95 µM
[22]
  GI50: 0.857 µM
  TGI: 2.07 µM
[23]
  GI50: 1.25 µM
  TGI: 2.63 µM
[24]
  GI50: 1.38 µM
  TGI: 2.82 µM
[25]
  GI50: 1.6 µM
  TGI: 3.44 µM
[26]
  GI50: 1.38 µM
  TGI: 2.7 µM
[27]
  GI50: 1.55 µM
  TGI: 3.36 µM
[28]
  GI50: 1.14 µM
  TGI: 2.55 µM
[29]
  GI50: 1.48 µM
  TGI: 2.83 µM
[30]
  GI50: 1.74 µM
  TGI: 3.16 µM
[31]
  GI50: 1.6 µM
  TGI: 3.21 µM
[32]
  GI50: 1.28 µM
  TGI: 2.81 µM
[33]
  GI50: 1.6 µM
  TGI: 3.11 µM
[34]
  GI50: 0.18 µM
  TGI: 0.365 µM
[35]
  GI50: 1.78 µM
  TGI: 3.52 µM
[36]
  GI50: 2.07 µM
  TGI: 3.63 µM
[37]
  GI50: 1.4 µM
  TGI: 2.78 µM
[38]
  GI50: 0.548 µM
  TGI: 1.96 µM
[39]
  GI50: 1.2 µM
  TGI: 2.61 µM
[40]
  GI50: 0.547 µM
  TGI: 2.26 µM
[41]
  GI50: 1.66 µM
  TGI: 3.26 µM
[42]
  GI50: 0.252 µM
  TGI: 0.738 µM
[43]
  GI50: 1.35 µM
  TGI: 2.86 µM
[44]
  GI50: 0.483 µM
  TGI: 1.87 µM
[45]
  GI50: 1.96 µM
  TGI: 3.69 µM
[46]
  GI50: 1.82 µM
  TGI: 3.47 µM
[47]
  GI50: 1.88 µM
  TGI: 3.59 µM
[48]
  GI50: 1.23 µM
  TGI: 3.03 µM
[49]
  GI50: 0.701 µM
  TGI: 1.99 µM
[50]
  GI50: 0.317 µM
  TGI: 1.05 µM
[51]
  GI50: 1.23 µM
  TGI: 2.59 µM
[52]
  GI50: 0.35 µM
  TGI: 1.57 µM
[53]
  GI50: 1.78 µM
  TGI: 3.33 µM
[54]
  GI50: 1.11 µM
  TGI: 2.5 µM
[55]
  GI50: 0.436 µM
  TGI: 1.91 µM
[56]
  GI50: 1.44 µM
  TGI: 2.97 µM
[57]
  GI50: 0.919 µM
  TGI: 2.38 µM

## COc1cc2c(cc1OCCCOc1cc3c(cc1OC)C(=O)N1CCC[C@H]1C(=O)N3)N=C[C@@H]1CCCN1C2=O
[1]
  TGI: 42.3 µM
[2]
  TGI: 67 µM
[3]
  TGI: 55.4 µM
[4]
  TGI: 40.5 µM
[5]
  TGI: > 100 µM
[6]
  TGI: > 100 µM
[7]
  TGI: 57.4 µM
[8]
  TGI: 33.4 µM
[9]
  TGI: 12.1 µM
[10]
  TGI: 36 µM
[11]
  TGI: 42.4 µM
[12]
  TGI: 84.4 µM
[13]
  TGI: 37.9 µM
[14]
  TGI: 84.5 µM
[15]
  TGI: 44 µM
[16]
  TGI: 31 µM
[17]
  TGI: 19.5 µM
[18]
  TGI: 18.7 µM
[19]
  TGI: 35.4 µM
[20]
  TGI: 35.5 µM
[21]
  TGI: 57.4 µM
[22]
  TGI: 38.5 µM
[23]
  TGI: 31.5 µM
[24]
  TGI: 54 µM
[25]
  TGI: 77.3 µM
[27]
  TGI: > 100 µM
[28]
  TGI: 61.5 µM
[29]
  TGI: 26.8 µM
[30]
  TGI: 46.5 µM
[31]
  TGI: 56.5 µM
[32]
  TGI: > 100 µM
[33]
  TGI: 29.8 µM
[34]
  TGI: 27.3 µM
[35]
  TGI: 6.34 µM
[37]
  TGI: 46.8 µM
[38]
  TGI: 27.3 µM
[39]
  TGI: > 100 µM
[40]
  TGI: 21.2 µM
[41]
  TGI: 31 µM
[42]
  TGI: 3.71 µM
[43]
  TGI: 38.8 µM
[44]
  TGI: 1.41 µM
[45]
  TGI: 50 µM
[46]
  TGI: 59.6 µM
[47]
  TGI: 69.6 µM
[49]
  TGI: > 100 µM
[50]
  TGI: > 100 µM
[51]
  TGI: > 100 µM
[52]
  TGI: 57 µM
[53]
  TGI: 83.3 µM
[54]
  TGI: 70.4 µM
[55]
  TGI: 88.4 µM
[56]
  TGI: 46.4 µM
[57]
  TGI: > 100 µM
